# Measurements from ChEMBL document CHEMBL5036325, “Novel Biphenyl Pyridines as Potent Small-Molecule Inhibitors Targeting the Programmed Cell Death-1/Programmed Cell Death-Ligand 1 Interaction” (J Med Chem, 2021).
# pEC50, pIC50: −log10 of the molar value. Active and inactive are the calls of the source. No cut-off for these calls is given here.
# Assays:
# [1] = biological target: Programmed cell death protein 1/Programmed cell death 1 ligand 1 (Homo sapiens, UniProt Q9NZQ7); experiment: Inhibition of PD-1/PD-L1 interaction (unknown origin) preincubated with PD-L1 for 15 mins followed by PD-1 addition measured after 90 mins by TR-FRET assay; assay type: protein-complex assay
# MDA-MB-231 [2] = experiment: Antitumor immunity against human MDA-MB-231 cells co-cultured with CD3/CD28/CD2 T cell activator stimulated human PMBC assessed as cell death measuring lactate dehydrogenase release at 48.9 to 1500 nM measured for 12 hrs by PBMC killing assay; assay type: functional, cell-based; conditions: dose lower 48.9 nM, dose upper […]
# MDA-MB-231 [3] = experiment: Antitumor immunity against human MDA-MB-231 cells co-cultured with CD3/CD28/CD2 T cell activator stimulated human PMBC assessed as cell death measuring lactate dehydrogenase release measured for 12 hrs by PBMC killing assay; assay type: functional, cell-based; conditions: MDA-MB-231, 12 h
# MDA-MB-231 [4] = experiment: Antitumor immunity against human MDA-MB-231 cells co-cultured with CD3/CD28/CD2 T cell activator stimulated human PMBC assessed as cell death measuring lactate dehydrogenase release at 375 nM measured for 12 hrs by PBMC killing assay relative to control; assay type: functional
# [5] = AUC (0 to t) in Sprague-Dawley rat at 3 mg/kg, iv measured upto 24 hrs by LC-MS/MS analysis; assay type: ADME, organism-based; parameters: route intravenous, dose 3 mg/kg, time <=24; conditions: in vivo
# [6] = AUC (0 to t) in Sprague-Dawley rat at 25 mg/kg, po measured upto 24 hrs by LC-MS/MS analysis; assay type: ADME, organism-based; parameters: route oral, dose 25 mg/kg, time <=24; conditions: in vivo
# [7] = Cmax in Sprague-Dawley rat at 3 mg/kg, iv measured upto 24 hrs by LC-MS/MS analysis; assay type: ADME, organism-based; parameters: route intravenous, dose 3 mg/kg, time <=24; conditions: in vivo
# [8] = Cmax in Sprague-Dawley rat at 25 mg/kg, po measured upto 24 hrs by LC-MS/MS analysis; assay type: ADME, organism-based; parameters: route oral, dose 25 mg/kg, time <=24; conditions: in vivo
# [9] = Half life in Sprague-Dawley rat at 3 mg/kg, iv measured upto 24 hrs by LC-MS/MS analysis; assay type: ADME, organism-based; conditions: in vivo
# [10] = Half life in Sprague-Dawley rat at 25 mg/kg, po measured upto 24 hrs by LC-MS/MS analysis; assay type: ADME, organism-based; conditions: in vivo
# [11] = Tmax in Sprague-Dawley rat at 3 mg/kg, iv measured upto 24 hrs by LC-MS/MS analysis; assay type: ADME, organism-based; conditions: in vivo
# [12] = Tmax in Sprague-Dawley rat at 25 mg/kg, po measured upto 24 hrs by LC-MS/MS analysis; assay type: ADME, organism-based; conditions: in vivo
# [13] = Clearance in Sprague-Dawley rat at 3 mg/kg, iv measured upto 24 hrs by LC-MS/MS analysis; assay type: ADME, organism-based; conditions: in vivo
# [14] = Clearance in Sprague-Dawley rat at 25 mg/kg, po measured upto 24 hrs by LC-MS/MS analysis; assay type: ADME, organism-based; conditions: in vivo
# [15] = Apparent volume of distribution in Sprague-Dawley rat at 3 mg/kg, iv measured upto 24 hrs by LC-MS/MS analysis; assay type: ADME, organism-based; conditions: in vivo, read-out: Vz
# [16] = Apparent volume of distribution in Sprague-Dawley rat at 25 mg/kg, po measured upto 24 hrs by LC-MS/MS analysis; assay type: ADME, organism-based; conditions: in vivo
# [17] = Oral bioavailability in Sprague-Dawley rat at 25 mg/kg measured upto 24 hrs by LC-MS/MS analysis; assay type: ADME, organism-based; conditions: in vivo
# CT26 [18] = experiment: Antitumour activity against mouse CT26 cells implanted in po dosed BALB/c mouse assessed as increase in CD8+ cells in dissociated tumor tissue administered once daily for 2 weeks by flow cytometry analysis; assay type: functional, organism-based
# CT26 [19] = experiment: Antitumor activity against mouse CT26 cells implanted in BALB/c mouse assessed as decrease in final tumor weight at 40 to 80 mg/kg/day, po measured once in 2 weeks relative to control; assay type: functional; parameters: scale not given: the % may be the effect or the level left; conditions: dose 40-80 mg/kg/day
# CT26 [20] = experiment: Antitumor activity against mouse CT26 cells implanted in BALB/c mouse assessed as tumor growth inhibition at 40 to 80 mg/kg/day, po measured once in 2 weeks relative to control; assay type: functional; conditions: dose 40-80 mg/kg/day
# CT26 [21] = experiment: Antitumour activity against mouse CT26 cells implanted in BALB/c mouse assessed as increased infiltration of CD8+ cell in tumor tissue at 40 to 80 mg/kg, po administered twice a day by immunohistochemical analysis; assay type: functional, organism-based; conditions: dose 40-80 mg/kg
# CT26 [22] = experiment: Antitumour activity against mouse CT26 cells implanted in BALB/c mouse assessed as decrease in nucleus to cytoplasm ratio at 40 to 80 mg/kg, po administered twice a day by Hematoxylin and Eosin staining based analysis; assay type: functional, organism-based; conditions: dose 40-80 mg/kg
# CT26 [23] = experiment: Antitumour activity against mouse CT26 cells implanted in BALB/c mouse assessed as induction of tumor shrinkage at 40 to 80 mg/kg, po administered twice a day by Hematoxylin and Eosin staining based analysis; assay type: functional, organism-based; conditions: dose 40-80 mg/kg
# CT26 [24] = experiment: Antitumour activity against mouse CT26 cells implanted in BALB/c mouse assessed as inhibition of tumour cell growth at 40 to 80 mg/kg, po administered twice a day by Hematoxylin and Eosin staining based analysis; assay type: functional, organism-based; conditions: dose 40-80 mg/kg
# CT26 [25] = experiment: Antitumour activity against mouse CT26 cells implanted in BALB/c mouse assessed as inhibition of tumour growth at 40 mg/kg, po measured for 14 days relative to control; assay type: functional; conditions: 336 h, time 14 day, read-out: TGI
# [26] = Cytotoxicity against human PBMC cells assessed as cell viability at […] by LDH assay; assay type: cell-based; conditions: dose 1.5 µM
# MDA-MB-231 [27] = experiment: Antitumor activity against human MDA-MB 231 cells assessed as cell viability at […] by LDH assay; assay type: functional, cell-based; conditions: dose 1.5 µM
# [28] = Toxicity in BALB/c mouse implanted with mouse CT26 cells assessed as body weight change at 40 to 80 mg/kg/day, po measured once in 2 weeks; assay type: organism-based; conditions: in vivo, 336 h, dose 40-80 mg/kg/day
# [29] = Toxicity in BALB/c mouse implanted with mouse CT26 cells assessed as mortality at 40 to 80 mg/kg/day, po measured once in 2 weeks; assay type: organism-based; conditions: in vivo, 336 h, dose 40-80 mg/kg/day
# MDA-MB-231 [30] = experiment: Antitumor immunity against human MDA-MB-231 cells co-cultured with CD3/CD28/CD2 T cell activator stimulated human PMBC assessed as cell death measuring lactate dehydrogenase release at 500 nM measured for 12 hrs by PBMC killing assay relative to control; assay type: functional
# Programmed cell death protein 1/Programmed cell death 1 ligand 1, sequence (Q15116 whole entry): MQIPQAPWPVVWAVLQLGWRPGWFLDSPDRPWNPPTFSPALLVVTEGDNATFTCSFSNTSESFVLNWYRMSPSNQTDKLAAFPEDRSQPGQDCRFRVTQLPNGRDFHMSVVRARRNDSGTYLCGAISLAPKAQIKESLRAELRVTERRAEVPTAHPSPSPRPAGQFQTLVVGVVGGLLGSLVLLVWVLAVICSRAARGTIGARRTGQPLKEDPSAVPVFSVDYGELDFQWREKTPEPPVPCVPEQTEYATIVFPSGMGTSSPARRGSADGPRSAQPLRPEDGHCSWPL
# Programmed cell death protein 1/Programmed cell death 1 ligand 1, sequence (Q9NZQ7 whole entry): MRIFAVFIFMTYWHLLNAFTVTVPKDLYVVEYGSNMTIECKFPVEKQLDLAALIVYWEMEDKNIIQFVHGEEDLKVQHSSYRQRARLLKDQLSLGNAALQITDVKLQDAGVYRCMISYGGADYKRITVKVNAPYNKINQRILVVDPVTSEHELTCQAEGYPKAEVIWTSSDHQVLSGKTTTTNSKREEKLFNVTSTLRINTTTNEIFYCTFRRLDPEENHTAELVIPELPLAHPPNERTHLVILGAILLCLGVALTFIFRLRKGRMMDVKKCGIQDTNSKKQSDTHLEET
smiles,measurement,setting,value
COc1nc(-c2cccc(-c3ccccc3)c2C)ccc1CN1CC[C@@H](O)C1,pIC50,[1],8.07
COc1nc(-c2cccc(-c3ccc4c(c3)OCO4)c2C)ccc1CNCCO,pIC50,[1],7.88
Cc1c(-c2ccccc2)cccc1-c1ccc(CNCCO)cn1,pIC50,[1],7.46
COc1nc(-c2cccc(-c3ccccc3)c2C)ccc1CN(C)CCO,pIC50,[1],8.08
COc1cccc(-c2cccc(-c3ccc(CNCCO)c(OC)n3)c2C)c1,pIC50,[1],7.90
COc1nc(-c2cccc(-c3ccc4c(c3)OCCO4)c2C)ccc1CNCCCO,pIC50,[1],8.11
COc1nc(-c2cccc(-c3ccc4c(c3)OCCO4)c2C)ccc1CNCCO,pIC50,[1],8.10
COC(=O)c1ccc(-c2cccc(-c3ccccc3)c2C)nc1OC,pIC50,[1],6.49
COc1nc(-c2cccc(-c3ccccc3)c2C)ccc1CNC[C@@H]1CCC(=O)N1,pIC50,[1],7.85
COc1nc(-c2cccc(-c3ccccc3)c2C)ccc1CNCCO,pIC50,[1],[…]
same,Activity,MDA-MB-231 [2],Active
same,pEC50,MDA-MB-231 [3],7.00
same,Activity,MDA-MB-231 [4],53%
same,AUC(0-t) at 24 h,[5],430 ng·h/mL
same,AUC(0-t) at 24 h,[6],787 ng·h/mL
same,Cmax,[7],1230 ng/mL
same,Cmax,[8],192 ng/mL
same,half-life,[9],4.2 h
same,half-life,[10],6.4 h
same,Tmax,[11],1.8 min
same,Tmax,[12],0.69 h
same,clearance,[13],192 mL/min/kg
same,CL/F,[14],480 mL/min/kg
same,Vd,[15],78.6 L/kg
same,Vz,[16],249.3 L/kg
same,bioavailability,[17],22%
same,Activity,CT26 [18],Dose-Dependent Effect
same,Activity,CT26 [19],60%
same,TGI,CT26 [20],67%
same,Activity,CT26 [21],Active
same,Activity,CT26 [22],Active
same,Activity,CT26 [23],Active
same,Activity,CT26 [24],Active
same,inhibition in vivo at 40 mg/kg,CT26 [25],57%
same,Activity,[26],Non-Toxic
same,Activity,MDA-MB-231 [27],inactive
same,Activity,[28],Non-Toxic
same,Activity,[29],Non-Toxic
COc1nc(-c2cccc(-c3ccccc3)c2C)ccc1CNCCCO,pIC50,[1],8.13
Cc1c(-c2ccccc2)cccc1-c1cc(CNCCO)ccn1,pIC50,[1],6.88
COc1nc(-c2cccc(-c3ccccc3)c2C)ccc1CNCCNC(C)=O,pIC50,[1],7.84
COc1nc(-c2cccc(-c3ccccc3)c2C)ccc1C(=O)NCCO,pIC50,[1],6.49
COc1nc(-c2cccc(-c3ccc4c(c3)OCCO4)c2C)ccc1CNCCN,pIC50,[1],7.78
COc1nc(-c2cccc(-c3ccc4c(c3)OCCO4)c2C)ccc1CNCCNC(C)=O,pIC50,[1],7.85
COc1nc(OCc2cccc(-c3ccccc3)c2C)ccc1CNCCNC(C)=O,Activity,MDA-MB-231 [30],44%
same,inhibition in vivo at 40 mg/kg,CT26 [25],32%
COc1nc(-c2cccc(-c3ccccc3)c2C)ccc1CN[C@@H](CO)C(=O)O,pIC50,[1],7.77
COc1nc(-c2cccc(-c3ccccc3)c2C)ccc1CN[C@H](C)CO,pIC50,[1],8.30
COc1nc(-c2cccc(-c3ccc4c(c3)OCCO4)c2C)ccc1CN[C@@H](CO)C(=O)O,pIC50,[1],7.98
CC(=O)NCCNCc1ccc(-c2cccc(-c3ccccc3)c2C)nc1,pIC50,[1],7.28
COc1nc(-c2cccc(-c3ccccc3)c2C)ccc1CNCCN,pIC50,[1],7.68
